The values below come from patent US6048854A, “2,3-diaminopropionic acid derivative” (Sumitomo Pharmaceuticals Company, Limited, priority 1993, dated 2000).

Molecules are shown by their SMILES. Where two headings read alike, the source gives them in different places.

Experiment [1] relates to platelet aggregation. Nature of the experiment: Platelet aggregation inhibitory activity (ADP-induced, human platelet rich plasma). Type of experiment: cell-based. In a few lines: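 Citrated human platelet-rich plasma […] was stirred with test compound for 2 min at 37 °C. Aggregation was then induced with ADP at 3 μg/ml final and monitored by nephelometry. IC50 is the concentration giving 50% inhibition of aggregation.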

In experiment [2] the target is T1, human fibrinogen (Homo sapiens, UniProt P05106+P08514).
T1 construct: centrifuged at 11000 rpm for two minutes to give human platelet; from tissue
T1 sequence (P08514 32-887 limits assumed): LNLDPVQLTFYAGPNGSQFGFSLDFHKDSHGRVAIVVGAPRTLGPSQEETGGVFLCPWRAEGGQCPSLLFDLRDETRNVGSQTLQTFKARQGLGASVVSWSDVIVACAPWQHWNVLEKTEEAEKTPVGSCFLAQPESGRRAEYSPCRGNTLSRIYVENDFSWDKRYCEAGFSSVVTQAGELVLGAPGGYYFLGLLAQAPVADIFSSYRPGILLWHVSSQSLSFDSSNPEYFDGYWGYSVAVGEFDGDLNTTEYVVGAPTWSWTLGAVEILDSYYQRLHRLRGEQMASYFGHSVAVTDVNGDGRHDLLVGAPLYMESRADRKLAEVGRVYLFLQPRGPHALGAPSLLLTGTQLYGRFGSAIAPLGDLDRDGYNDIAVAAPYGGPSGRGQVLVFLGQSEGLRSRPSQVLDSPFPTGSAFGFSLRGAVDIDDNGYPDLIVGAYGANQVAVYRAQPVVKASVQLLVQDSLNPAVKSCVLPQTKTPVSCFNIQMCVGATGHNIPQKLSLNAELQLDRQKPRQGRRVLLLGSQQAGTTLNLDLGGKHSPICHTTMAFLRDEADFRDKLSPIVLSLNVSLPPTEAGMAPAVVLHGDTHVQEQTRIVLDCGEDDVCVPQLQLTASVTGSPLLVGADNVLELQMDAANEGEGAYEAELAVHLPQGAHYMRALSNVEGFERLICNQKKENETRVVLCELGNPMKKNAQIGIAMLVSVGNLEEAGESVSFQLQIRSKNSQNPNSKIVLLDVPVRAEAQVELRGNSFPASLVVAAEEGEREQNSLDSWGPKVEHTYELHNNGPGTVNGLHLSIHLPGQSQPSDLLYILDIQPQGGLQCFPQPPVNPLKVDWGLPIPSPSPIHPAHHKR
T1 sequence (P08514 891-1039 limits assumed): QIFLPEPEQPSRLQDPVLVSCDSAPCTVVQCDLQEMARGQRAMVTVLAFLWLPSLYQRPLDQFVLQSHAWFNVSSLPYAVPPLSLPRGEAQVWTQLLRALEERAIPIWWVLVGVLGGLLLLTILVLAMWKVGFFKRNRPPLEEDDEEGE
T1 sequence (P05106 27-788): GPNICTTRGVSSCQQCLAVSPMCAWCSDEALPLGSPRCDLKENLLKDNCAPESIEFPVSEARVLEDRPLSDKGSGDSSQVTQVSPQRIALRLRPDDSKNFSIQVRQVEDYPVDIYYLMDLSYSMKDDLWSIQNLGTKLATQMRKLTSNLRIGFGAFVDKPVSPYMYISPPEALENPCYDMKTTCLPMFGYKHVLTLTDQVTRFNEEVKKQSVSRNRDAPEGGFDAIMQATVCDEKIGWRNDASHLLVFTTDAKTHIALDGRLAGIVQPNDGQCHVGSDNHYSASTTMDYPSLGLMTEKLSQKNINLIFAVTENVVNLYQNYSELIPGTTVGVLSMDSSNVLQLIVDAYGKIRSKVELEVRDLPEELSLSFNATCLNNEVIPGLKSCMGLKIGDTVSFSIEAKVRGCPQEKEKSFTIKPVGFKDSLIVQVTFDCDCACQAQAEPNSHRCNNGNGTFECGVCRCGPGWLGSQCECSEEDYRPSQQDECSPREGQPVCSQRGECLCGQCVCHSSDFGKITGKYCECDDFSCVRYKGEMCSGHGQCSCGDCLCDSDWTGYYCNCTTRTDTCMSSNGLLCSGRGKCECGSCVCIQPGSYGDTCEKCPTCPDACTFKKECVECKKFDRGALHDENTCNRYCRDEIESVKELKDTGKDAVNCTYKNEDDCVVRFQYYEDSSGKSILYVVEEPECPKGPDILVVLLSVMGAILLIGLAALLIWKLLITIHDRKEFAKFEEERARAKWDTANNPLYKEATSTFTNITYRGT
Nature of the experiment: Binding assay of platelet to adhesive protein: fibrinogen (receptor binding inhibition). To be noted: Table 4; fixed activated human platelets, 37° C., 60 minutes. The procedure:
(§1) The blood was taken out from the elbow vein of a normal volunteer, and mixed with 1/10 volume of 3.8% sodium citrate. The blood was centrifuged at 1,000 rpm (150 g) for 10 minutes, and the supernatant is collected as a platelet rich plasma (PRP). The precipitates are centrifuged at 11,000 rpm (6000 g) for two minutes, and the supernatant is collected as a platelet poor plasma (PPP). To PRP is added prostaglandin I2 (PGl2) at a final concentration of 50 ng/ml, and the mixture was centrifuged at 11000 rpm for two minutes to give human platelet. The platelet was activated by washing with 3.8 mM HEPES-buffer (pH 7.4, Tyrode-HEPES buffer) containing 0.14 M sodium chloride, 2.7 mM potassium chloride, 3.7 mM sodium dihydrogen phosphate, 0.98 mM magnesium chloride, 1 mg/ml glucose, 50 ng/ml PGl2 and 0.35% bovine serum albumin (BSA), adding thereto 5 μM epinephrine, and 30 μM ADP (adenosine diphosphate), followed by being allowed to stand at room temperature for five minutes. To the activated platelet was added 0.05% p-formaldehyde, and the mixture was allowed to stand at room temperature for 30 minutes to give the fixed platelet, which was suspended in Tyrode-HEPES buffer to give a platelet suspension of a concentration of 2×10^8 ml^-1.
(§2) Human fibrinogen from which fibronectin was previously removed by passing through gelatin-cepharose, human fibronectin or human vitronectin was diluted with 0.1 M aqueous sodium hydrogen carbonate solution to a concentration of 5 μg/ml, and the protein solution is put into a 96-well microplate at a volume of 200 μl/well. The microplate was allowed to stand at 4° C. overnight. The plate was washed with phosphate buffered saline (PBS), and subjected to blocking with 3% BSA at 37° C. for one hour. To the plate were added a platelet suspension (final concentration, 10^8 ml^-1) and a test compound of various concentrations (total volume, 200 μl/well), and the plate was incubated at 37° C. for 60 minutes. The plate was treated with 1000-fold diluted enzyme (HRP)-labelled anti-mouse IgG polyclonal antibody at 37° C. for 60 minutes, and thereto was added HRP chromogenic substrate (0.1 M phosphate buffer containing 0.4 mg/ml O-phenylenediamine,0.01% hydrogen peroxide, 0.1 M citric acid, pH 5), and reacted at room temperature for 15 minutes. The reaction was terminated by adding thereto 4.5 M sulfuric acid at a volume of 25 μl/well, and the absorbance at 490 nm was measured.

For experiment [3], the system named is human fibronectin. Nature of the experiment: Binding assay of platelet to adhesive protein: fibronectin (receptor binding inhibition). To be noted: Table 4; fixed activated human platelets, 37° C., 60 minutes. How it is done:
as §1, §2

For experiment [4], the system named is human vitronectin. Kind of experiment: Binding assay of platelet to adhesive protein: vitronectin (receptor binding inhibition). To be noted: Table 4; fixed activated human platelets, 37° C., 60 minutes; read-out: receptor binding inhibition (IC50), Bitronectin. How it is done:
as §1, §2

Experiment [5] deals with platelet aggregation. Kind of experiment: Platelet aggregation inhibitory activity (ex vivo) after oral administration. It counts as in vivo. Conditions: Cavia porcellus, guinea pig, oral 0.1 mg/kg, ADP 10 μg/ml. The procedure: A canula for collecting blood was inserted into the left common carotid artery of a guinea pig which was anesthetized with pentobarbital (30 mg/kg, i.p.). The blood (1 ml) was taken with a syringe containing 1/10 volume of 3.8% sodium citrate (Kettin-citrate, manufactured by Kokusai Shiyaku Ltd.), and the platelet aggregation ability thereof was measured (as a value before administration). Then, a test compound was orally administered to the guinea pig at a dose of 0.1 mg/kg in a volume of 5 ml/kg, and the blood was collected periodically likewise at 0.5, 1, 2, 4 and 6 hours after the administration of the test compound, and the platelet aggregation ability thereof was measured.
The determination of the platelet aggregation ability was carried out by turbidimetry using a Hematracer (Niko Bioscience) as follows. That is, the blood was centrifuged at 4500 rpm at room temperature for 10 seconds, and the supernatant was considered as platelet rich plasma (PRP), and the precipitate was centrifuged at 11000 rpm for two minutes and its supernatant was considered as platelet poor plasma (PPP), and the photo-transmittance of the PRP and the PPP was adjusted to 0%, and 100%, respectively. A cubet containing PRP (200 μl) was inserted to a measurement well, and […] at 1000 rpm at 37° C. for two minutes, and thereto was added a platelet aggregator; ADP (adenosine diphosphate, Sigma Ltd., 20 μl, final concentration; 10 μg/ml), and the maximum aggregation rate was measured. From the maximum aggregation rate before the administration of the test compound (MAR control) and the maximum aggregation rate after the administration of the test compound (MAR sample), the platelet aggregation inhibitory rate of each test compound was estimated according to the following equation.
Inhibitory rate (%)=(1-(MAR sample/MAR control))×100
The periodical change in the platelet aggregation inhibitory rate of each test compound at a dose of 0.1 mg/kg of oral administration is shown in Table 5.

The mark [6] stands for this setting: Table 1, human PRP, ADP 3 μg/ml, 37° C.
Setting [7] is: 0.5 hr, read-out: platelet aggregation inhibitory rate (%), 0.5 hr.
Where [8] appears, read: 1 hr, read-out: platelet aggregation inhibitory rate (%), 1 hr.
Setting [9] is: 2 hrs, read-out: platelet aggregation inhibitory rate (%), 2 hrs.
Where [10] appears, read: 4 hrs, read-out: platelet aggregation inhibitory rate (%), 4 hrs.
Setting [11] is: 6 hrs, read-out: platelet aggregation inhibitory rate (%), 6 hrs.
[12] abbreviates: Homo sapiens, Table 2, same manner as Example 17.

By IC50 is commonly meant the concentration that inhibits the measured activity by half. On to `N=C(N)c1ccc(C(=O)NCCC(=O)NC[C@H](NS(=O)(=O)c2ccccc2)C(=O)O)cc1` [Example 1, (2S)-3-(3-(4-amidinobenzoylamino)propanoylamino)-2-benzenesulfonylaminopropanoic Acid], for which the IC50 in experiment [1] (setting [6]) was found to be 16 nM; in experiment [2] it was 4.6 nM; in experiment [3], 200 nM; in experiment [4] it was 1000 nM. Moreover, the inhibition in vivo at 0.1 mg/kg in experiment [5] (setting [7]), in experiment [5] (setting [8]), in experiment [5] (setting [9]), in experiment [5] (setting [10]) and in experiment [5] (setting [11]) was 100% each time.
`O=C(CCC1CCNCC1)NCCC(=O)NC[C@H](NS(=O)(=O)c1ccccc1)C(=O)O` [Example 2, (2S)-2-benzenesulfonylamino-3-(3-(3-(4-piperidyl)propanoylamino)propanoylamino)propanoic Acid]: the IC50 in experiment [1] (setting [6]) was 39.6 nM; in experiment [2], 12 nM; in experiment [3], 120 nM; in experiment [4], 75000 nM. Moreover, the inhibition in vivo at 0.1 mg/kg in experiment [5] (setting [7]) was determined as 87%; in experiment [5] (setting [8]) it was 78%; in experiment [5] (setting [9]), 67%; in experiment [5] (setting [10]), 32%; in experiment [5] (setting [11]) it was 13%.
In the case of `COc1ccc(S(=O)(=O)N[C@@H](CNC(=O)CCNC(=O)c2ccc(C(=N)N)cc2)C(=O)O)cc1` [Example 18, (2S)-3-(3-(4-amidinobenzoylamino)propanoylamino)-2-(4-methoxy)benzenesulfonylaminopropanoic Acid], the IC50 stood at 33 nM in experiment [1] (setting [12]), 7.3 nM in experiment [2], 400 nM in experiment [3] and 8900 nM in experiment [4]. For the same compound, the inhibition in vivo at 0.1 mg/kg was 54% in experiment [5] (setting [7]); 100% in experiment [5] (setting [8]); 100% in experiment [5] (setting [9]); 73% in experiment [5] (setting [10]); 66% in experiment [5] (setting [11]).
On to `Cc1cc(C)c(S(=O)(=O)N[C@@H](CNC(=O)CCNC(=O)c2ccc(C(=N)N)cc2)C(=O)O)c(C)c1` [Example 19, (2S)-3-(3-(4-amidinobenzoylamino)propanoylamino)-2-(2,4,6-trimethyl)benzenesulfonylaminopropanoic Acid], for which the IC50 was determined as 30 nM in experiment [1] (setting [12]), 5 nM in experiment [2], 47 nM in experiment [3] and 1200 nM in experiment [4]. Moreover, the inhibition in vivo at 0.1 mg/kg worked out at 86% in experiment [5] (setting [7]); 93% in experiment [5] (setting [8]); 91% in experiment [5] (setting [9]); 89% in experiment [5] (setting [10]); 91% in experiment [5] (setting [11]).
With `N=C(N)c1ccc(C(=O)NCCC(=O)NC[C@H](NS(=O)(=O)c2cccc3ccccc23)C(=O)O)cc1` [Example 20], the IC50 in experiment [1] (setting [12]) turned out to be 57 nM; in experiment [2], 7.3 nM; in experiment [3], 79 nM; in experiment [4], 500 nM. Besides, the inhibition in vivo at 0.1 mg/kg worked out at 76% in experiment [5] (setting [7]); 91% in experiment [5] (setting [8]); 99% in experiment [5] (setting [9]); 100% in experiment [5] (setting [10]); 100% in experiment [5] (setting [11]).
Consider `N=C(N)c1ccc(C(=O)NCCC(=O)NC[C@H](NS(=O)(=O)c2ccccc2C(F)(F)F)C(=O)O)cc1` [Example 21, (2S)-3-(3-(4-amidinobenzoylamino)propanoylamino)-2-(2-trifluoromethyl)benzenesulfonylaminopropanoic Acid], for which the IC50 was 15 nM in experiment [1] (setting [12]), 2.2 nM in experiment [2], 310 nM in experiment [3] and 240 nM in experiment [4]. Besides, the inhibition in vivo at 0.1 mg/kg in experiment [5] (setting [7]) was found to be 96%; in experiment [5] (setting [8]), 99%; in experiment [5] (setting [9]), 100%; in experiment [5] (setting [10]), 100%; in experiment [5] (setting [11]) it was 100%.
In the case of `COc1ccc(S(=O)(=O)N[C@@H](CNC(=O)CCCOc2ccc(C(=N)N)cc2)C(=O)O)cc1` [Example 57, (2S)-3-(4-(4-amidinophenoxy)butanoylamino)-2-(4-methoxy)benzenesulfonylaminopropanoic Acid], the IC50 came out at 18 nM in experiment [1] (setting [12]), 7.1 nM in experiment [2], 1200 nM in experiment [3] and 7500 nM in experiment [4].
Taken in the same sequence, the figures for `N=C(N)c1ccc(OCCCC(=O)NC[C@H](NS(=O)(=O)c2ccccc2)C(=O)O)cc1` [Example 58, (2S)-3-(4-(4-amidinophenoxy)butanoylamino)-2-benzenesulfonylaminopropanoicAcid] were 96 nM, 24 nM, 610 nM and 8000 nM.
The corresponding values for `N=C(N)c1ccc(OCCCC(=O)NC[C@H](NS(=O)(=O)c2ccccc2[N+](=O)[O-])C(=O)O)cc1` [Example 59] are 34 nM, 12 nM, 610 nM and 3300 nM.
Turning to `Cc1cc(C)c(S(=O)(=O)N[C@@H](CNC(=O)CCCOc2ccc(C(=N)N)cc2)C(=O)O)c(C)c1` [Example 60, (2S)-3-(4-(4-amidinophenoxy)butanoylamino)-2-(2,4,6-trimethyl)benzenesulfonylaminopropanic Acid], the IC50 in experiment [1] (setting [12]) is 31 nM; in experiment [2], 1.5 nM; in experiment [3], 94 nM; in experiment [4] it was 1100 nM.
Taken in the same sequence, the figures for `COc1ccc(S(=O)(=O)N[C@@H](CNC(=O)Cc2ccc(-c3ccc(C(=N)N)cc3)cc2)C(=O)O)cc1` [Example 68, (2S)-3-(2-(4'-amidino-4-biphenylyl)ethanoylamino)-2-(4-methoxy)benzenesulfonylaminopropanoic Acid] were 43 nM, 12 nM, 99 nM and 2700 nM.
Regarding `N=C(N)c1ccc(C(=O)N2CCCC(C(=O)NC[C@H](NS(=O)(=O)c3ccccc3)C(=O)O)C2)cc1` (stereo partly drawn) [Example 95, (2S)-3-((1-(4-amidinobenzoyl)-3-piperidyl)carbonylamino)-2-benzenesulfonylaminopropanoic Acid], the half-inhibitory concentration (IC50) in experiment [2] was determined as 8.4 nM; in experiment [3] it was 33 nM; in experiment [4], 630 nM. In addition, the inhibition in vivo at 0.1 mg/kg in experiment [5] (setting [7]) came to 49%; in experiment [5] (setting [8]), 49%; in experiment [5] (setting [9]), 31%; in experiment [5] (setting [10]), 12%; in experiment [5] (setting [11]), 18%.
